From patent US20240115577A1, “SMALL MOLECULE REGULATORS OF ALVEOLAR TYPE 2 CELL PROLIFERATION FOR THE TREATMENT OF PULMONARY DISEASES” (THE SCRIPPS RESEARCH INSTITUTE, priority 2021, published 2024)
pEC50: −log10 of the molar value. Entries after “also recorded” stand apart in the source; their conditions may differ. Where two headings read alike, the source gives them in different places.

Assays:
[1] = tested on: acute lung injury induced by LPS; experiment: LPS-induced acute lung injury (ALI) model; type: in vivo, mouse; conditions: for Efficacy in LPS acute lung injury model, result in words / minimal efficacious dose in LPS lung injury model: oral; for Efficacy in LPS acute lung injury model, result in words: histological scoring, BALF protein
Method: Experimental methods of Acute Lung Injury (ALI) model
LPS from E. coli […] (Sigma) was used to induce acute lung injury in mice. Body weight matched (19 gram˜22 gram) female C57BL/6J mice at 9-11 weeks of age were selected to use in ALI model.
Vehicle control or DPP4 inhibitors were dosed at 10 ml/kg through oral gavage once or twice a day selected based on PK profile. […] Vehicle control or DPP4 inhibitors were dosed at 2 ml/kg through a 22 g flexible catheter every other day.
DPP4 inhibitors or vehicle control were given to mice starting from one day before LPS injection (day −1).
All animals were sacrificed at day 3.5 after LPS injection. Bronchoalveolar lavage fluid (BALF) was retrieved using standard method. 1 ml 4% formalin was used to inflate the lung, which was subsequently fixed in 4% formalin for 24 hours and preserved in 70% EtOH until histological process.
For readouts, total protein content in BALF was quantified using BCA assay: pulmonary inflammation and damage were assessed using H&E staining.

[2] = tested on: bleomycin-induced lung fibrosis; experiment: Bleomycin-induced lung fibrosis model; type: in vivo, mouse; conditions: for Dose required in mouse bleomycin / Dose required in mouse bleomycin, multiple of HED: Table 6; for Efficacy in bleomycin-induced lung fibrosis, result in words: oral, high doses
Method: Experimental Methods of Bleomycin Model Bleomycin (Hospira) was used to induce lung fibrosis in mice. Body weight matched (24 gram˜28 gram) male C57BL/6J mice at 10-12 weeks of age were selected to use in bleomycin model. For orally delivered DPP4 inhibitors. compounds were dissolved in PBS resulting in clear solution. […] For intratracheally delivered DPP4 inhibitors, compounds were dissolved in PBS resulting in clear solution. […] 0.5 U/kg Bleomycin or PBS in sham group was intratracheally injection into mice lung at day 0. […] All animals were sacrificed at day 20 after bleomycin injection. Bronchoalveolar lavage fluid (BALF) was retrieved using standard method. 1 ml 4% formalin was used to inflate the lung, which was subsequently fixed in 4% formalin for 24 hours and preserved in 70% EtOH until histological process. For readouts, body weight was measured every day; total protein content in BALF was quantified using BCA assay; pulmonary fibrosis was assessed using Masson's trichrome staining.

[3] = Pharmacokinetic profiling of four gliptins (oral, IT or OP); type: in vivo, mouse; conditions: for fraction of oral dose required by pulmonary (IT or OP) delivery for similar lung exposure: oral 100 mg/kg versus IT/OP 20 mg/kg
Method: B. Pharmacokinetic profiling. […] Thus, four of the five […] currently approved by the U.S. FDA were each administered to mice orally (100 mg/kg) or through intratracheal (IT) or oropharyngeal (OP) routes (20 mg/kg).

phospholipidosis = experiment: Phospholipidosis assay in vitro; conditions: FIG. 7A; listed as Linagliptin
Primary human AEC2s = experiment: AEC2 proliferation assay (Ki67 high content imaging); type: cell-based; conditions: for pEC50: Homo sapiens
Method: To identify small molecules capable of proliferating AEC2s, as disclosed herein, we first established a culture system with primary human small airway epithelial cells (SAECs) from a commercial source.
AEC2 proliferation assay. Primary human AEC2s were plated at a density of 1,500 cells per well in black 384-well plates (Greiner) coated with 10 ug/mL. Laminin (Life Technologies) in 50 μL of Small Airway Epithelial Cell Growth Medium (Lonza) without EGF, retinoic acid and with 5% BPE. 100 nL of compound dissolved in DMSO was then delivered using a Biomek FX instrument (Beckman Coulter) fitted with a pintool head (V&P Scientific).

oral glucose tolerance = conditions: rodent models of diabetes; cited from earlier work
[4] = Table 5, read-out: AEC2 proliferation

Structure (SMILES)	Dose required in mouse ALI ([1]; Table 6)	Dose required in mouse ALI, multiple of HED ([1]; Table 6)	Efficacy in LPS acute lung injury model, result in words ([1]; high doses)	Dose required in mouse bleomycin [2]	Dose required in mouse bleomycin, multiple of HED [2]	Efficacy in bleomycin-induced lung fibrosis, result in words [2]	fraction of oral dose required by pulmonary (IT or OP) delivery for similar lung exposure [3]	AEC2 proliferation, result in words (Primary human AEC2s)	pEC50 (Primary human AEC2s; [4])	minimal efficacious dose in LPS lung injury model [1] [mg/kg]	dose with efficacy in OGTT model (oral glucose tolerance) [mg/kg]	also measured
CC#CCn1c(N2CCC[C@@H](N)C2)nc2c1c(=O)n(Cc1nc(C)c3ccccc3n1)c(=O)n2C [Cpd 5, (R)-8-(3-aminopiperidin-1-yl)-7-(but-2-yn-1-yl)-3-methyl-1-((4-methylquinazolin-2-yl)methyl)-3,7-dihydro-1H-purine-2,6-dione]	1 mg/kg QD	model (2x HED)	efficacious	>10 mg/kg qD	(>20x HED)	efficacious	one-fifth	–	–	–	–	doses with antagonistic activity, repeat dosing ([1]; FIG. 7B): ≥ 2 mg/kg; efficacious dose, repeat dosing ([1]; FIG. 7B): 1 mg/kg; dose toxic in mouse ALI model ([1]; Table 6): 2 mg/kg; lung exposure over the evaluated time frame ([3]; versus other gliptins): considerably higher lung exposure; phospholipidosis induction (phospholipidosis): significant phospholipidosis at low concentrations; also recorded: induces phospholipidosis
N[C@@H](CC(=O)N1CCn2c(nnc2C(F)(F)F)C1)Cc1cc(F)c(F)cc1F [Sitagliptin]	100 mg/kg BID	(10-20x HED)	efficacious; also recorded: promote repair; also recorded: dramatic improvements	100 mg/kg mg/kg BID	–	efficacious; also recorded: ameliorative efficacy; also recorded: robust protection	one-fifth	promote AEC2 proliferation to the same magnitude as NVP-728	6.25	100	3 to 30	proliferative AEC2s (KI-67 SFPTC double positive cells) ([1]; LPS model): substantial increase; total number of cells (all nuclei) or Ki-67 positive cells in the lung ([1]; LPS model): does not significantly increase; cytokine or BALF levels at early timepoints ([1]; high doses, time course): do not affect; protection in bleomycin model, co-treatment with Nintedanib (Ofev) ([2]; Bliss independence calculations): synergistic protection
N#C[C@@H]1C[C@@H]2C[C@@H]2N1C(=O)[C@@H](N)C12CC3C[C@@H](C1)C[C@@](O)(C3)C2 [Cpd 4, (1S,3S,5S)-2-((2S)-2-amino-2-((1S,3R,5S)-3-hydroxyadamantan-1-yl)acetyl)-2-azabicyclo[3.1.0]hexane-3-carbonitrile]	50 mg/kg BID (10-	–	–	50 mg/kg BID	(10-20x HED)	efficacious	one-fifth	promote AEC2 proliferation to the same magnitude as NVP-728	6.19	50	0.5 to 5	pEC50 (Primary human AEC2s; Table 4, promotion of AEC2 proliferation, read-out: AEC2 EC50): 6.19; Efficacy in LPS acute lung injury model, result in words ([1]; high doses, listed as Saxagliptin): efficacious; also recorded: promote repair; also recorded: dramatic improvements
